The values below are quoted from earlier work in patent US20190231888A1, “TEXAPHYRIN AND ANTITUMOR ANTIBIOTIC CONJUGATES” (priority 2016, published 2019).

The conditions of this data set: intravenous, determined in one study; cited from earlier work.

As to lutetium texaphyrin, the maximum tolerated dose was 5.2 mg/kg.
